Here are results for 22 compounds from ChEMBL document CHEMBL1909046, “DrugMatrix in vitro pharmacology data”.

One test has as its target Melanocortin receptor 4 (Homo sapiens, UniProt P32245). The class given is cell membranes, Membrane. The settings on record: hek293. Further: in other assays of this panel Not Active means under 50% inhibition at 10 µM.
Test [1] concerns the target 5-hydroxytryptamine receptor 4 (Cavia porcellus, UniProt O70528). Type of test: cell membranes, Dunkin-Hartley, Striatum, Membrane. Further: in other assays of this panel Not Active means under 50% inhibition at 10 µM.
In test [2] the target is Mitogen-activated protein kinase 3 (Homo sapiens, UniProt P27361). Kind of test: DRUGMATRIX: Protein Serine/Threonine Kinase, ERK1 enzyme inhibition (substrate: Myelin Basic Protein). Set-up: species or system Escherichia coli. Particulars: Not Active = under 50% inhibition at 10 µM.
Test [3] has as its target Sigma non-opioid intracellular receptor 1 (Homo sapiens, UniProt Q99720). Kind of test: DRUGMATRIX: Sigma1 radioligand binding (ligand: [3H] Haloperidol). Type of test: cell membranes, Jurkat, Membrane. Particulars: jurkat; Not Active = under 50% inhibition at 10 µM.
The target of test [4] is Aldo-keto reductase family 1 member B1 (Rattus norvegicus, UniProt P07943). Description: biochemical. The class given is tissue-based, Lens of camera-type eye.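 Further: inhibition of aldose reductase enzyme activity, measured with DL-glyceraldehyde as the substrate; in other assays of this panel Not Active means under 50% inhibition at 10 µM.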
In another test the target is Melanocortin receptor 3 (Homo sapiens, UniProt P41968). The class given is cell membranes, Membrane. Particulars: hek293. Further: in other assays of this panel Not Active means under 50% inhibition at 10 µM.
Chain of Melanocortin receptor 3 (P41968 whole entry): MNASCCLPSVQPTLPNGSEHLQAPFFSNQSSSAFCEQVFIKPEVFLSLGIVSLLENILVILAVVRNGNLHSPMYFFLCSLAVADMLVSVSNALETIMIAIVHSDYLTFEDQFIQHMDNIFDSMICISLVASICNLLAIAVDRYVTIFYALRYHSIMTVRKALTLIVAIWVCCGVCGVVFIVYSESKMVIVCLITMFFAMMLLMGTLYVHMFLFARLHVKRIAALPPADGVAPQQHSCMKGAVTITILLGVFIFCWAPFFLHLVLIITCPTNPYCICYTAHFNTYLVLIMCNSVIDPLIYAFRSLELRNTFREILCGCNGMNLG

Chain of Mitogen-activated protein kinase 3 (P27361 whole entry): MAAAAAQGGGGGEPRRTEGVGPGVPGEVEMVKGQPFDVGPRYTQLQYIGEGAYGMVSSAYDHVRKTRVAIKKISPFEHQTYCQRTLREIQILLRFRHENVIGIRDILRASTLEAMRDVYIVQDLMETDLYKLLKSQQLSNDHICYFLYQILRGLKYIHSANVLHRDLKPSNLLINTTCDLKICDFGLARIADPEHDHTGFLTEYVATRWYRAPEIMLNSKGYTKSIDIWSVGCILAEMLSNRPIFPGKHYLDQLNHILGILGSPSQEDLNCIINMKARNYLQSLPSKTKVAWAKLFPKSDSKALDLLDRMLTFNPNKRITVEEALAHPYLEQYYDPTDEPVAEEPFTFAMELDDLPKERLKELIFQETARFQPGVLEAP
Chain of Melanocortin receptor 4 (P32245 whole entry): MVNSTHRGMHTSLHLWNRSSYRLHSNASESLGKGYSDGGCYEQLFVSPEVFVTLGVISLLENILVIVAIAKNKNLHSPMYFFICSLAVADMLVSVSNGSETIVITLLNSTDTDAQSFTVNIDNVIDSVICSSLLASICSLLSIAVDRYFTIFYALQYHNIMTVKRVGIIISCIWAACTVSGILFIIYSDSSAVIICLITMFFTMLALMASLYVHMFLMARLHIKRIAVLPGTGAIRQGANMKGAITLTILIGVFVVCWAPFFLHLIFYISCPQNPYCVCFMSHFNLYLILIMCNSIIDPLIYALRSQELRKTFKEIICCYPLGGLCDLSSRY
Chain of Sigma non-opioid intracellular receptor 1 (Q99720 whole entry): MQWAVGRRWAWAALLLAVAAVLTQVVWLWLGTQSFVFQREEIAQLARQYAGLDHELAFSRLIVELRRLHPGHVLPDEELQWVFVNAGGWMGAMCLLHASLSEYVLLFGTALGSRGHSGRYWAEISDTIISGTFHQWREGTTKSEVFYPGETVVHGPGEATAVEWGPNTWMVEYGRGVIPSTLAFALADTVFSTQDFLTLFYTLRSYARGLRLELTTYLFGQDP
Chain of 5-hydroxytryptamine receptor 4 (O70528 whole entry): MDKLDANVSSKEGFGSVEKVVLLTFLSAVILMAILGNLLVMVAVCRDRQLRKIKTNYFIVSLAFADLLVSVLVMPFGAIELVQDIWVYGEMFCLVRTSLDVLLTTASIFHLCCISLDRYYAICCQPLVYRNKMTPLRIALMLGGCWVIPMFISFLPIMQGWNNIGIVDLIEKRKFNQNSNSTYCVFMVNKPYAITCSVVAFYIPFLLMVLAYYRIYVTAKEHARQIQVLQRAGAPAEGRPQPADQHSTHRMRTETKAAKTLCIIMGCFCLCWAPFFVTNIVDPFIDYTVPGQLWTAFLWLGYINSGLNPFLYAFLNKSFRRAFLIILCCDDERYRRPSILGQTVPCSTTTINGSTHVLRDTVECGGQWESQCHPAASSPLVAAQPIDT

In the case of `Nn1nnc2ccccc21`, the IC50 result (on Melanocortin receptor 4; in test [1]; in test [2]; in test [3]; in test [4]; against Melanocortin receptor 3) was “Not Active” each time.

In the case of `CC[C@]1(O)CC[C@H]2[C@@H]3CCC4=CCCC[C@@H]4[C@H]3CC[C@@]21C`, the IC50 result (against Melanocortin receptor 4; in test [1]; in test [2]; in test [3]; in test [4]; against Melanocortin receptor 3) was “Not Active” in each case.

Regarding `N[C@@H](Cc1ccc(F)cc1)C(=O)O`, the IC50 entry (against Melanocortin receptor 4; in test [1]; in test [2]; in test [3]; in test [4]; on Melanocortin receptor 3) was “Not Active” each time.

With `CCOC(=O)[C@H](CCc1ccccc1)N[C@@H](C)C(=O)N1Cc2ccccc2C[C@H]1C(=O)O`, the IC50 entry (against Melanocortin receptor 4; in test [1]; in test [2]; in test [3]; in test [4]; against Melanocortin receptor 3) was “Not Active” each time.

In the case of `O=C(c1ccccc1Cl)N1CCC(Cc2ccccc2)CC1`, the IC50 entry (against Melanocortin receptor 4; in test [1]; in test [2]; in test [3]; in test [4]; against Melanocortin receptor 3) was “Not Active” in each case.

In the case of `CCOC(=O)[C@H](CCc1ccccc1)N[C@@H](C)C(=O)N1CCC[C@H]1C(=O)O`, the IC50 entry (against Melanocortin receptor 4; in test [1]; in test [2]; in test [3]; in test [4]; against Melanocortin receptor 3) was “Not Active” in each case.

As for `Clc1cc2c(cc1Cl)Oc1cc(Cl)c(Cl)cc1O2` [2,3,7,8-TETRACHLORODIBENZO-P-DIOXIN], the IC50 result (at Melanocortin receptor 4; in test [1]; in test [2]; in test [3]; in test [4]; on Melanocortin receptor 3) was “Not Active” throughout.

For the compound `C=C1/C(=C\C=C2/CCC[C@]3(C)[C@@H]([C@H](C)CCCC(C)C)CC[C@@H]23)C[C@@H](O)C[C@@H]1O` [ALFACALCIDOL], the IC50 entry (at Melanocortin receptor 4; in test [1]; in test [2]; in test [3]; in test [4]; against Melanocortin receptor 3) was “Not Active” in each case.

As to `CCCCCC[C@H]1C(=O)O[C@H](C)[C@H](NC(=O)c2cccc(NC=O)c2O)C(=O)O[C@@H](C)[C@@H]1OC(=O)CC(C)C` [ANTIMYCIN A], the IC50 entry (at Melanocortin receptor 4; in test [1]; in test [2]; in test [3]; in test [4]; on Melanocortin receptor 3) was “Not Active” in each case.

`C[C@@H]1CC[C@H]2[C@@H](C)C(=O)O[C@@H]3O[C@@]4(C)CC[C@@H]1[C@]32OO4` [ARTEMISININ]: the IC50 result (at Melanocortin receptor 4; in test [1]; in test [2]; in test [3]; in test [4]; against Melanocortin receptor 3) was “Not Active” in each case.

In the case of `CO[C@H]1[C@@H](O)[C@H](N)[C@@H](O[C@H]2O[C@H]([C@H](C)N)CC[C@H]2N)[C@H](O)[C@@H]1N(C)C(=O)CN` [ASTROMICIN], the IC50 result (at Melanocortin receptor 4; in test [1]; in test [2]; in test [3]; in test [4]; on Melanocortin receptor 3) was “Not Active” in each case.

For the compound `[N-]=[N+]=CC(=O)OC[C@H](N)C(=O)O` [AZASERINE], the IC50 entry (against Melanocortin receptor 4; in test [1]; in test [2]; in test [3]; in test [4]; against Melanocortin receptor 3) was “Not Active” in each case.

Take `CC[C@H]1OC(=O)[C@H](C)[C@@H](O[C@H]2C[C@@](C)(OC)[C@@H](O)[C@H](C)O2)[C@H](C)[C@@H](O[C@@H]2O[C@H](C)C[C@H](N(C)C)[C@H]2O)[C@](C)(O)C[C@@H](C)CN(C)[C@H](C)[C@@H](O)[C@]1(C)O` [AZITHROMYCIN]: the IC50 entry (on Melanocortin receptor 4; in test [1]; in test [2]; in test [3]; in test [4]; against Melanocortin receptor 3) was “Not Active” each time.

For `CC(C)(C)c1ccc(S(=O)(=O)/C=C/C#N)cc1` [BAY-11-7085], the IC50 entry (against Melanocortin receptor 4; in test [1]; in test [2]; in test [3]; in test [4]; against Melanocortin receptor 3) was “Not Active” throughout.

With `CCc1oc2ccccc2c1C(=O)c1cc(Br)c(O)c(Br)c1` [BENZBROMARONE], the IC50 entry (on Melanocortin receptor 4; in test [1]; in test [2]; in test [3]; in test [4]; against Melanocortin receptor 3) was “Not Active” each time.

With `O=c1cc(-c2ccccc2)oc2ccc3ccccc3c12` [BETA-NAPHTHOFLAVONE], the IC50 entry was “Not Active” against Melanocortin receptor 4; “Not Active” in test [1]; 5.47 µM in test [2] (read-out: IC50); “Not Active” in test [3]; “Not Active” in test [4]; “Not Active” on Melanocortin receptor 3.

For `CC(C)C[C@H]1C(=O)N2CCC[C@H]2[C@]2(O)O[C@](NC(=O)[C@@H]3C=C4c5cccc6[nH]c(Br)c(c56)C[C@H]4N(C)C3)(C(C)C)C(=O)N12` [BROMOCRIPTINE], the IC50 entry (against Melanocortin receptor 4; in test [1]; in test [2]; in test [3]; in test [4]; on Melanocortin receptor 3) was “Not Active” in each case.

On to `CS(=O)(=O)OCCCCOS(C)(=O)=O` [BUSULFAN], for which the IC50 result (on Melanocortin receptor 4; in test [1]; in test [2]; in test [3]; in test [4]; on Melanocortin receptor 3) was “Not Active” in each case.

On to `O=C(/C=C/c1ccc(O)c(O)c1)OCCc1ccccc1` [CAFFEIC ACID PHENETHYL ESTER], for which the IC50 entry against Melanocortin receptor 4 is “Not Active”; in test [1] it was “Not Active”; in test [2] it was “Not Active”; in test [3], “Not Active”; in test [4] (read-out: IC50), 1.41 µM; on Melanocortin receptor 3, “Not Active”.

For the compound `COc1cc(CNC(=O)CCCC/C=C/C(C)C)ccc1O` [CAPSAICIN], the IC50 entry (against Melanocortin receptor 4; in test [1]; in test [2]; in test [3]; in test [4]; at Melanocortin receptor 3) was “Not Active” throughout.

As to `Cc1c(N(C)CS(=O)(=O)[O-])c(=O)n(-c2ccccc2)n1C.[Na+]` [DIPYRONE SODIUM], the IC50 entry (against Melanocortin receptor 4; in test [1]; in test [3]; in test [4]; against Melanocortin receptor 3) was “Not Active” each time.

Consider `Cc1cnc(C(=O)NCCc2ccc(S(=O)(=O)NC(=O)NC3CCCCC3)cc2)cn1` [GLIPIZIDE], for which the IC50 entry (against Melanocortin receptor 4; in test [1]; in test [3]; in test [4]; against Melanocortin receptor 3) was “Not Active” in each case.

As a reminder, the IC50 is the concentration that gives 50% inhibition.
